Assay results reported in PMC5849061 (European journal of medicinal chemistry, 2018).
Converted amounts (≈) assume the structure as drawn. Each block holds one compound with its values, some of them ahead of it.

Tests used:
MRSA USA400 = experiment: Time-kill assay against MRSA USA400; conditions: 4 × MIC; for kill kinetics (in words): MRSA USA400
[1] = tested on: human colorectal cells (HRT-18); experiment: Cytotoxicity against human colorectal; conditions: HRT-18 cells, two hours, MTS; tested 16, 32, 64 μg/mL
[2] = tested on: MRSA USA400 inside infected macrophage (J774) cells; experiment: Clearance of intracellular MRSA in infected J774 macrophages; format: cell-based, Staphylococcus aureus; conditions: 24 hours
[3] = tested on: murine macrophage (J774) cells; experiment: Cytotoxicity against J774 macrophage cells; format: cell-based; conditions: 24-hour incubation, MTS, tested 8, 16, 32 μg/mL
human FPPS (HsFPPS) = biological target: T1, human FPPS (HsFPPS) (Homo sapiens, UniProt P14324); experiment: Human FPPS inhibition; format: biochemical; conditions: data not shown
T1 sequence (P14324 1-419): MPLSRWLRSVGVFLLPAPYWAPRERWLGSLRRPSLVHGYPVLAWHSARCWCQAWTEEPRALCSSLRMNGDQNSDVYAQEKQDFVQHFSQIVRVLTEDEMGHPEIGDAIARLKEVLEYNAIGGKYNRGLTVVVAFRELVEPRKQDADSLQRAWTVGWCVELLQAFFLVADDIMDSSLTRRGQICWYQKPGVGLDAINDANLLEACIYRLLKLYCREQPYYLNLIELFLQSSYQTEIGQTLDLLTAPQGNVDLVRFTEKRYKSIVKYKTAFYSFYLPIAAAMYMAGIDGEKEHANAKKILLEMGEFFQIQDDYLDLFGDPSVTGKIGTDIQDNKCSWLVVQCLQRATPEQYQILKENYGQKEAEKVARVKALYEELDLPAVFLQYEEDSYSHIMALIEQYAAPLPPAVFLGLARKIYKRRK

Caco-2 cells = experiment: Caco-2 bidirectional permeability assay; format: in vitro ADME, human
[4] = Metabolic stability in pooled human liver microsomes; format: in vitro ADME; conditions: for Notes (metabolic stability classification): HLM
[5] = In vivo pharmacokinetics in rat, single IV bolus; parameters: species or system Sprague-Dawley rats; conditions: male, Sprague-Dawley, plasma, 2 μM solution, t1/2, rat, two-compartment model
[6] = tested on: PMF in E. coli inverted membrane vesicles (IMVs); experiment: IMV protonophore uncoupler assay
VRS11a (VRSA) = experiment: Broth microdilution MIC/MBC against VRS11a; format: cell-based; conditions: Staphylococcus aureus
MRSA USA300 = experiment: Time-kill assay against MRSA USA300; conditions: 4 × MIC
[7] = human, pooled human liver microsomes, pH 7.4

SMILES: C/C(=N\NC(=N)N)c1sc(-c2ccc(C#Cc3ccccc3)cc2)nc1C [Compound 5]
kill kinetics (in words) (MRSA USA400): bacteriostatic
non-toxic up to (concentration) [1]: 32 µg/mL

SMILES: C/C(=N\NC(=N)N)c1sc(-c2ccc(C#CC3CCCCC3)cc2)nc1C [Compound 6, 2-(1-(2-(4-(Cyclohexylethynyl)phenyl)-4-methylthiazol-5-yl)ethylidene)hydrazine-1-carboximidamide]
reduction of the burden of intracellular MRSA ([2]; 16 μg/mL): neither the alicyclic-containing derivatives 6, 7 or 9 (4 × MIC) nor vancomycin (4 × MIC) were able to produce a significant reduction
non-toxic up to (concentration) [1]: 32 µg/mL

SMILES: C/C(=N\NC(=N)N)c1sc(-c2ccc(C#CC3CCCC3)cc2)nc1C [Compound 7, 2-{1-[2-(4-(Cyclopentylethynyl)phenyl)-4-methylthiazol-5-yl]ethylidene} hydrazine-1-carboximidamide]
non-toxic to macrophage cells up to a concentration of [3]: 8 µg/mL
reduction of the burden of intracellular MRSA ([2]; 8 μg/mL (4 × MIC)): neither the alicyclic-containing derivatives 6, 7 or 9 (4 × MIC) nor vancomycin (4 × MIC) were able to produce a significant reduction
reduction in MRSA CFU/mL after 8 hours (MRSA USA400; 8 hours, re-growth thereafter): ~3 log10
non-toxic up to (concentration) [1]: 32 µg/mL

SMILES: C/C(=N\NC(=N)N)c1sc(-c2ccc(C#CC3CC3)cc2)nc1C [Compound 9, 2-(1-(2-(4-(Cyclopropylethynyl)phenyl)-4-methylthiazol-5-yl)ethylidene) hydrazine-1-carboximidamide]
non-toxic to macrophage cells up to a concentration of [3]: 8 µg/mL
reduction of the burden of intracellular MRSA ([2]; 8 μg/mL (4 × MIC)): neither the alicyclic-containing derivatives 6, 7 or 9 (4 × MIC) nor vancomycin (4 × MIC) were able to produce a significant reduction
inhibition of HsFPPS (human FPPS (HsFPPS)): no inhibition
Notes (permeability classification) (Caco-2 cells): Low permeability
Notes (metabolic stability classification) [4]: Stable to metabolism
half-life at 0.1 μM [4, 7]: 4.8 h
microsomal CLint at 0.1 μM [4, 7]: < 116 µL/min/mg
half-life [5]: ~4.5 h
time to complete eradication of MRSA USA400 (MRSA USA400): 24 h
kill kinetics (in words) (MRSA USA400): slow bactericidal activity
non-toxic up to (concentration) [1]: 32 µg/mL
EC50 for PMF collapse (corresponding mass concentration) ([6]; ATP-powered PMF generation): 8 µg/mL
EC50 for PMF collapse (corresponding mass concentration) ([6]; succinate/O2-powered PMF generation): 9.5 µg/mL

MIC (VRS11a (VRSA)): 0.5 µg/mL (≈ 1.47 µM)
SMILES: CCCC#Cc1ccc(-c2nc(C)c(/C(C)=N/NC(=N)N)s2)cc1 [Compound 10, 2-(1-(4-Methyl-2-(4-(pent-1-yn-1-yl)phenyl)thiazol-5-yl)ethylidene)hydrazine-1-carboximidamide]
non-toxic to macrophage cells up to a concentration of [3]: 16 µg/mL
reduction of the burden of intracellular MRSA ([2]; 16 μg/mL): complete eradication
kill kinetics (in words) (MRSA USA300): rapid bactericidal activity
non-toxic up to (concentration) [1]: 32 µg/mL

SMILES: CCCCCC#Cc1ccc(-c2nc(C)c(/C(C)=N/NC(=N)N)s2)cc1 [Compound 11, 2-(1-(2-(4-(Hep-1-yn-1-yl)phenyl)-4-methylthiazol-5-yl)ethylidene)hydraz-ine-1-carboximidamide]
non-toxic to macrophage cells up to a concentration of [3]: 16 µg/mL
reduction of the burden of intracellular MRSA ([2]; 16 μg/mL): complete eradication
kill kinetics (in words) (MRSA USA300): rapid bactericidal activity
non-toxic up to (concentration) [1]: 32 µg/mL

SMILES: CCCCCCC#Cc1ccc(-c2nc(C)c(/C(C)=N/NC(=N)N)s2)cc1 [Compound 12]
non-toxic up to (concentration) [1]: 32 µg/mL

SMILES: C/C(=N\NC(=N)N)c1sc(-c2ccc(C#CC(C)(C)C)cc2)nc1C [Compound 13, 2-(1-(2-(4-(3,3-Dimethylbut-1-yn-1-yl)-phenyl)-4-methylthiazol-5-yl)ethylidene) hydrazine-1-carboximidamide]
non-toxic up to (concentration) [1]: 32 µg/mL

Notes (metabolic stability classification) [4]: Stable to metabolism
SMILES: C/C(=N\NC1=NCCN1)c1sc(-c2ccc(C#CC3CC3)cc2)nc1C [Compound 19, 2-(4-(Cyclopropylethynyl)phenyl)-5-(1-(2-(4,5-dihydro-1H-imidazol-2-yl)hydrazono)ethyl)-4-methylthiazole]

SMILES: C/C(=N\NC1=NCCN1)c1sc(-c2ccc(C#CC(C)(C)C)cc2)nc1C [Compound 23, 5-(1-(2-(4,5-Dihydro-1H-imidazol-2-yl)hydrazono)ethyl)-2-(4-(3,3-dimethylbut-1-yn-1-yl)phenyl)-4-methylthiazole]
non-toxic up to (concentration) [1]: 32 µg/mL

SMILES: CN[C@H](CC(C)C)C(=O)N[C@H]1C(=O)N[C@@H](CC(N)=O)C(=O)N[C@H]2C(=O)N[C@H]3C(=O)N[C@H](C(=O)N[C@H](C(=O)O)c4cc(O)cc(O)c4-c4cc3ccc4O)[C@H](O)c3ccc(c(Cl)c3)Oc3cc2cc(c3O[C@@H]2O[C@H](CO)[C@@H](O)[C@H](O)[C@H]2O[C@H]2C[C@](C)(N)[C@H](O)[C@H](C)O2)Oc2ccc(cc2Cl)[C@H]1O [Vancomycin, reference compound]
time to complete eradication of MRSA USA400 (MRSA USA400): 24 h
